Results published in USRE37302E, “Peptide” (Novo Nordisk A/S, priority 1992, dated 2001).
Entries after “also recorded” stand apart in the source; their conditions may differ. Where no end group is shown, it is not given here.

Columns and labels:
[1] = system: insulin treated obese NIDDM patients; assay: Meal test in insulin treated obese NIDDM patients (Example 1); assay type: in vivo, human; details: meal-related, glibenclamide 1 mg i.v., GLP-1(7-36)amide infusion 0.75 pmol/kg/min for 210 min, 6 NIDDM patients
[2] = system: patients with NIDDM and secondary failure to sulfonylurea treatment; assay: Basal state and meal test in NIDDM patients with secondary failure to sulfonylurea treatment (Example 2); assay type: in vivo, human; details: for Insulinogenic index: after ingestion of the meal, integrated insulin/integrated glucose response; for Blood glucose: 45 minutes after start of administration, glibenclamide 1 mg i.v., GLP-1(7-36)amide 0.75 pmol/kg/min
[3] = system: isolated precultured rat pancreatic islets; details: in the presence of glucose; cited from earlier work
[4] = system: diabetic as well as nondiabetic subjects; details: diabetic and nondiabetic subjects; cited from earlier work

**Q.** With `COc1ccc(Cl)cc1C(=O)NCCc1ccc(S(=O)(=O)NC(=O)NC2CCCCC2)cc1` [glibenclamide] as the molecule, how does the Glucagon response [1] read?
**A.** no significant influence on glucagon release; also recorded: no significant effect

**Q.** What about the Insulinogenic index [2] of the same molecule?
**A.** 10.6 ± 2.8

**Q.** And the Blood glucose ([2]; basal state)?
**A.** 6.0 ± 0.3 mmol/L

**Q.** And the “effect on blood glucose and C-peptide levels” value ([2]; basal state, in words)?
**A.** no significant effect on its own

**Q.** Which insulin release [3] does the source give for “GLP-1(1-36)amide (HDEFERHAEGTFTSDVSSYLEGQAAKEFIAWLVKGR-NH2; UniProt P01275 92-127, looked up, fragment) [amide of the GLP-1 fragment comprising amino acid residues 1 to 36]” here?
**A.** stimulates insulin release

**Q.** With GLP-1(7-36)amide as the molecule, how does the Glucagon response [1] read?
**A.** 10451 ± 5126 pg/ml/210 min

**Q.** What about the Glucagon response ([1]; listed as GLP-1(7-36) amide) of the same molecule?
**A.** suppressed the glucagon response

**Q.** What about the Insulinogenic index [2] of the same molecule?
**A.** 21.0 ± 7.2

**Q.** And the Blood glucose ([2]; basal state)?
**A.** 5.1 ± 0.4 mmol/L

**Q.** Which insulinotropic action [4] does the source give for “GLP-1(7-37) (HAEGTFTSDVSSYLEGQAAKEFIAWLVKGRG; Glucagon-like peptide 1(7-37); UniProt P01275 98-128, looked up) [GLP-1 fragment, residues 7 to 37; formula I when X is Gly--OH]” here?
**A.** has been demonstrated
